Measured values: patent publication US11987808B2, “Method of human periferic sensory neurons differenciation from human stem cells and uses thereof” (L'OREAL, priority 2017, dated 2024)
Entries after “also recorded” stand apart in the source; their conditions may differ.

Assays:
[1] = system: hiPS cells derived sensory neurons (TRPV1 activity / substance P release); test: Substance P release (ELISA) from hiPSC-derived sensory neurons after treatment with TRPV1 agonists and antagonists; format: cell-based, human
Procedure: Substance P release measured in the supernatant of sensory neurons culture after incubating 1 h at 37° C. in the presence of ligands. CAP: capsaicin; CPZ: capsazepine; RR: ruthenium red; AEA: anandamide (10 μM); KCl: high potassium solution (70 mM).
Substance P (SP) levels were determined using a commercially available ELISA kit (Cayman), following the manufacturer's instructions. Sensory neurons were cultured in a culture vessel in 24-well culture vessels at high confluence. After 24 h, cells were rinsed with fluorimetry buffer and incubated with different concentrations of agonists of TRPV1 for 45 minutes in the same buffer. When an antagonist was used, it was applied 15 minutes before, then the solution was changed to agonist plus antagonist. Subsequently, the supernatants were collected and immediately used with the ELISA kit. All experiments were performed in triplicate and absorbance levels were measured in a microculture vessel reader.
PSNs respond to irritants, such as capsaicin, via release of neuropeptides at the epidermal end and glutamate and neuropeptides in the dorsal horn of the medulla (Basbaum et al., Cellular and molecular mechanisms of pain. Cell. 2009; 139:267-284). To verify if the sensory neurons were functional with respect to neuropeptide release, after D33 they were plated onto 24-well plates and treated 10 days with HEKn conditioned medium.

[2] = system: TRPV1 in hiPS cells derived sensory neurons; test: Calcium release assay (Fura-2 imaging) in hiPS cells derived sensory neurons; format: cell-based, human; details: Fura-2 340/380 nm, capsaicin 100 nM in FIG. 5
Procedure: Phase contrast image for cell localization (a) fluorescence image of basal calcium levels (b). Calcium responses in sensory neurons after 100 nM capsaicin (c) and 70 mM KCL treatment (d). Calcium imaging of sensory neurons with conversion of Fura-2 excitation ratio (340/380 nm) to pseudo color, according to the scale on the left of each image. Arrows indicate active cells.
Neurons were cultured in a culture vessel onto PLO and Laminin-treated coverslips (where they were treated with HEKn conditioned medium for 10 days. On the day of the experiment, the medium was removed and cells were incubated with fresh medium (without factors) containing 5 μM Fura-2 AM (Molecular Probes) and 0.04% pluronic acid for one hour at 37° C. Then this solution was replaced with fluorimetry buffer, composed of (in mM): 145 NaCl, 5 KCl, 1.2 NaHPO4, 1.5 CaCl2, 10 D-glucose, 5 HEPES pH 7.4. If an antagonist was used, it was added to this solution at this time. After 30 minutes at 37° C., the coverslips were taken to an inverted microscope (Nikon) equipped with a CCD Camera (Orca, Hamamatsu Photonics) and Lambda DG-4 light source (Sutter Instrument). The images were acquired every 500 milliseconds via MetaFluor software (Molecular Probes) and the levels of fluorescence were represented in pseudo-color. […]

[3] = system: cultured human epidermal keratinocytes; details: Inoue et al. 2002; cited from earlier work
human skin fibroblasts = details: Kim et al. 2006; cited from earlier work
TRPV1 = details: Zygmunt et al. 1999; cited from earlier work

## COc1cc(CNC(=O)CCCC/C=C/C(C)C)ccc1O [capsaicin]
[1]; capsaicin 300 nM, neurons treated 10 days with HEKn conditioned medium
  Substance P release relative to basal level: triple that amount
[1]; capsaicin 3 μM
  Substance P release: did not show increased release
[2]
  Calcium increases mediated by TRPV1 activation (calcium signals): modest
[2]; listed as Capsaicin
  Calcium increases mediated by TRPV1 activation (calcium signals): activity could be detected
[3]
  Intracellular calcium concentration: produced elevations in the intracellular calcium concentration
Human skin fibroblasts
  Membrane current and intracellular calcium level: induced significant changes in the membrane current and the intracellular calcium level

## CCCCC/C=C\C/C=C\C/C=C\C/C=C\CCCC(=O)NCCO [anandamide]
[1]; anandamide 10 μM
  Substance P release: evoked the highest substance P release; also recorded: caused a release of substance P
[1]; anandamide 10 μM, supernatant of sensory neurons culture after 1 h at 37° C.
  Substance P release, increase compared to control: 887%
TRPV1
  EC50 at TRPV1 compared with CB1: an order of magnitude higher

## Oc1cc2c(cc1O)CN(C(=S)NCCc1ccc(Cl)cc1)CCC2 [capsazepine]
[1]; co-treatment with capsazepine 1 μM, capsaicin 300 nM
  Block of capsaicin-induced substance P release: efficiently blocked
[3]
  Inhibition of capsaicin-/acidification-induced calcium increases: inhibited
Human skin fibroblasts
  Antagonism of capsaicin-induced changes: antagonized

## [Cl-].[K+] [high potassium solution]
[1]; high potassium solution 70 mM
  Substance P release: substance P release equivalent to capsaicin 300 r1M

## N.N.N.N.N.N.N.N.N.N.N.N.N.N.[Cl-].[Cl-].[Cl-].[Cl-].[Cl-].[Cl-].[O-2].[O-2].[Ru+3].[Ru+3].[Ru+4] [ruthenium red]
[1]; pre-incubation with ruthenium red 10 μM followed by capsaicin 3 μM
  Substance P release relative to basal levels: seemed to decrease substance P release below basal levels
